Measurements published in publication PMC8073686, “Characterization of Subtype Selective Cannabinoid CB2 Receptor Agonists as Potential Anti-Inflammatory Agents” (Pharmaceuticals, 2021).

Legend:
Jurkat cells = assay: CXCL12-mediated Jurkat cell transwell migration assay; format: cell-based, human; conditions: 2 h pretreatment, 2 h migration
Procedure: During inflammation, immune cells are attracted by chemoattractants and migrate to the site of inflammation. Therefore, an inhibitory effect on chemotaxis of immune cells is also a sign of anti-inflammatory effect. We evaluated ABK5-1 and ABK5-2 to determine if these compounds can inhibit CXCL12-mediated Jurkat cell migration. Jurkat cells were incubated with various concentrations of ABK5-1 or 5-2 and loaded on the transwells and allowed to migrate through the transwells to the bottom chamber, which include CXCL12. The cell number in the bottom chamber was determined after 2 h of loading. ABK5-1 inhibited Jurkat cell migration at 10 and 25 μM (Figure 5A). […] Again, to verify these observations were not due to cytotoxicity of test compounds, cell viability was also monitored by incubating cells with compound and CXCL12 without the transwells.
Figure 5 Effect of ABK5-1 and ABK5-2 on CXCL12-mediated Jurkat cell migration. Transwell migration of Jurkat cells treated with (A,B) ABK5-1 or (C,D) ABK5-2. Frames (A,C): Cells were treated with vehicle or various concentrations of test compounds for 2 h and then allowed to migrate through transwells for 2 h. Cell numbers migrated to the lower chamber are indicated as relative to vehicle (DMSO) alone. Results are indicated as the mean ± S.D. of three independent assays performed in triplicate for each concentration. Viability of cells treated with (B) ABK5-1 or (D) ABK5-2 after the migration assay was also examined. Cells were treated exactly the same but without transwells and viability was determined. Results are indicated as the mean ± S.D. of three independent assays performed for each concentration. One-way ANOVA plus Dunnett’s post-hoc test were used for both migration and viability assays. **** p < 0.0001 (versus vehicle control group).
The migration assay was performed as described previously. Briefly, a Transwell Multiple Well Plate with permeable polycarbonate membrane inserts ([…], 24-well, Corning, Corning, NY, USA) were used in migration assays. Jurkat cells were seeded at 2.5 × 10^6 cells/mL in RPMI medium containing 2.5% FBS and treated with DMSO or test compound for 2 h. Then a sample of cells were transferred to the top well. RPMI medium containing 0 to 1000 ng/mL CXCL12 and the appropriate concentration of test compound was loaded to the bottom chamber. Cells were allowed to migrate for 2 h and cells migrated from the top well to the bottom chamber were counted or measured by CCK-8 (Dojindo Molecular Technologies, Inc., Rockville, MD, USA) following the manufacturer instructions. For evaluation of cell viability, the same procedure used for the migration assay was performed without the transwells and the viable cells were counted or measured by CCK-8.

CB2 = target: T1, CB2 (Homo sapiens, UniProt P34972); assay: [35S]GTPγS binding assay (G-protein coupling), CB2 containing HEK293T cell membrane; format: biochemical; conditions: stimulation of [35S]GTPγS binding; mean ± S.D.
T1 construct: expressed in transfected cells; host or cells: HEK293T cells, calcium phosphate transfection, membrane preparation
Procedure: We also examined if the compounds can induce G-protein coupling and act as CB2 agonists. Three compounds, ABK5-1, ABK5-2, and ABK5-6, were subjected to [^35S]GTPγS binding assays. Increasing concentrations, from 1 nM to 10 μM of the test compounds, were incubated with CB2 containing HEK293T cell membrane and [^35S]GTPγS, which binds to Gi/o in the membrane upon CB2 activation and G-protein coupling. All three compounds stimulated dose-dependent increases of specific [^35S]GTPγS binding (Figure 3).
In the experiment, 1 × 10^6 HEK293T cells were seeded in a 10-cm cell culture dish and cultured for 24 h. Cells were transfected with CB1 or CB2 using the calcium phosphate method. Approximately one day after transfection, cells were harvested and centrifuged at 4 °C for 5 min at 500× g. The pellet was washed with phosphate buffered saline (PBS) twice and resuspended in PBS containing 1% protease-inhibitor cocktail (Sigma-Aldrich, St. Louis, MO, USA) consisting of 104 mM 4-(2-aminoethyl) benzene sulfonyl fluoride hydrochloride (AEBSF), 80 μM apronitin, 4 mM bestatin, 1.64 mM E-64, 2 mM leupeptin, 1.5 mM pepstatin A. Then the cells were subjected to nitrogen cavitation under 750 psi for 5 min using a Parr cell disruption bomb. The lysate was centrifuged at 500× g for 10 min at 4 °C and the supernatant was spun at 116,000× g for 45 min at 4 °C. The pellet, consisting of the cell membrane expressing CB1 or CB2, was resuspended in TME buffer solution (25 mM Tris-HCl, 5 mM MgCl2, and 1 mM EDTA, pH 7.4) with 7% (w/v) sucrose/TME buffer. The concentration of the membrane protein was determined by the Bradford assay (Bradford, 1976).
GTPγS binding assay buffer ([…], pH 7.4, 3 mM MgCl2, 0.2 mM EGTA, and 100 mM NaCl) membrane protein, 1 nM to 10 μM of the test compounds, 0.1 nM [^35S] GTPγS (1250 Ci/mmol; PerkinElmer Life Sciences, Waltham, MA, USA), 0.1% fatty acid free BSA (w/v), 10 μM guanosine diphosphate (GDP) and GTPγS was incubated for 1 h at 30 °C with shaking. […] A Beckman Coulter 6500 liquid scintillation counter was used to measure the radioactivity of the samples. […]

T1 sequence (P34972 whole entry): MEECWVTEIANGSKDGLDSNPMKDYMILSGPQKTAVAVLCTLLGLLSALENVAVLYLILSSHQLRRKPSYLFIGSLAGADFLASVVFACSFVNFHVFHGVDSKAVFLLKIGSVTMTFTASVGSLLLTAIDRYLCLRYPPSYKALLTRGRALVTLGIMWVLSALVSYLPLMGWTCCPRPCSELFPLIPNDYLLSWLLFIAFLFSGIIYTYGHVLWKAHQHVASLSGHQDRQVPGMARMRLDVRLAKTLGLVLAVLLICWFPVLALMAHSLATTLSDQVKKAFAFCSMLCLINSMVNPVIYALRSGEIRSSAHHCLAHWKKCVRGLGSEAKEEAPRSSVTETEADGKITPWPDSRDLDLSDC

EC50 (CB2) [nM]	SMILES	decrease of cell migration (Jurkat cells; 10 μM)	decrease of cell migration (Jurkat cells; 25 μM) [%]
24 ± 25	CCOC(=O)c1ccccc1NC(=O)CN(c1c(C)cccc1C)S(=O)(=O)c1ccccc1 [ABK5-2]	32%	32
11 ± 14	CCOC(=O)c1ccccc1NC(=O)CN(c1ccc(C)cc1C)S(=O)(=O)c1ccccc1 [ABK5-1]	about 35%	~43
